The structures appear in SMILES notation.

The nature of the series: gradient 5% acetonitrile 3 min, to 50% in 2 min, to 85% in 15 min, held 3 min, 100 µL/min. The following applies: column: Zorbax Extend-C18 2.1 x 50 mm; eluents: water / acetonitrile, 0.1% formic acid. In a few lines:
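Retention times come from adduct peaks that were picked computationally and then checked by hand. The standards, pure and pooled in mixtures of ~100 molecules, were run on a Zorbax Extend-C18 column (2.1 × 50 mm, 1.8 μm) at 100 μL/min with water and acetonitrile, each with 0.1% formic acid. Detection was by quadrupole time-of-flight mass spectrometry in positive and negative ionization mode, with a dead volume of 40 μL and a dwell volume of 900 μL.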
Turning to `O=S(=O)(c1cccnc1)N1CCc2[nH]nc(-c3ccc(F)cc3)c2C1`, the RP-LC retention time came out at 740 s.

As to `CC(C)OCCCNC(=O)Cn1c(=O)c2cccn2c2ccc(F)cc21`, the RP-LC retention time came out at 754 s. In the case of `COc1cccc(-c2noc3ncnc(N4CCN(c5ccccn5)CC4)c23)c1` it was 660 s; in that of `COc1ccc2c(c1)c(CN1CCC(C(=O)NCc3ccccc3C)CC1)cn2C`, 697 s; in that of `O=C(Nc1cccc(Br)c1)N1CCc2nc(-c3ccc(Cl)cc3)ncc2C1`, 1190 s. As for `CCOc1ccc(CNC(=O)C2CCN(S(=O)(=O)c3cn(C(C)C)cn3)CC2)cc1OC`, the RP-LC retention time was 704 s.

On to `CN1CCN(Cc2ccc(C(=O)NCCC3=CCCCC3)cc2)C(=O)C1=O`, for which the RP-LC retention time stood at 698 s.

In turn, `CC(C)c1ccc(-c2nc(-c3cccc(-c4ccnn4C)c3)no2)cc1` came in with an RP-LC retention time of 1390 s.

In turn, `CCC1CCCCN1Cc1nc(Cn2ccn3nc(-c4ccc(C)c(C)c4)cc3c2=O)no1` (centres undefined) showed an RP-LC retention time of 765 s. For `CN(C)c1ccc(CNC(=O)Cc2cn(C)c3ncccc23)cc1` the value was 704 s; for `CCn1c(N2CCCC(C(=O)NCc3ccc(SC)cc3)C2)cc(=O)n(C)c1=O` (centres undefined), 809 s. On to `O=C(NCCCN1CCOCC1)C1CCc2sc(C(=O)N3CCCC3)cc2C1` (centres undefined), for which the RP-LC retention time was 576 s. In the case of `Cc1nnsc1C(=O)N1CCC(CNC(=O)NC(c2ccccc2)c2ccccc2)CC1` it was 759 s; in that of `Cc1csc(-c2csc(S(=O)(=O)Nc3ccc(F)c(Cl)c3)c2)n1`, 1020 s. For `Cc1ccc(CCNC(=O)c2ccc3c(c2)NC(=O)C2CCCCN32)cc1` (centres undefined), the RP-LC retention time stood at 862 s. As for `Cc1ncsc1CN1CCC(Cc2ncc(C)n2Cc2ccccc2)C1` (centres undefined), the RP-LC retention time was found to be 550 s.

For `CCC(COC(=O)c1cc(OC)c(OC)c(OC)c1)(c1ccccc1)N(C)C` (centres undefined), the RP-LC retention time is 752 s. For `O=C(Cc1nnc(-c2ccc3ncccc3c2)o1)NCc1ccccc1F` the value was 695 s. In the case of `Cc1ccc(CC(=O)N2CCC3(CC2)NC(=O)c2cc(C)ccc2N3C)cc1` it was 852 s. For `Cc1c(CNCC2CCCO2)c(C(=O)O)c(C)n1Cc1cccc(Cl)c1` (centres undefined) the value was 717 s; for `CCSc1nnc(-c2nn(C)c3c2CN(S(=O)(=O)c2ccc(C)c(Cl)c2)CC3)n1CC`, 1050 s; for `Cc1ccc(NC(=O)Cn2c(=O)n(-c3ccc(F)cc3)c3ncccc32)cc1`, 880 s. As to `COc1ccc(Cl)cc1NC(=O)CSc1ccc(-c2ccccn2)nn1`, the RP-LC retention time amounted to 934 s. Consider `O=C(CN1c2ccccc2NC2=C(C(=O)CCC2)C1c1ccco1)Nc1ccc(F)cc1` (centres undefined), for which the RP-LC retention time was found to be 1070 s. In the case of `COc1ccc(C(=O)N2CCN(c3cc(C)n4cnnc4n3)CC2)cn1` it was 571 s. In the case of `Cc1sc2cc(C(=O)NCCN3CCOCC3)[nH]c2c1CN1CCCCC1` it was 551 s. The compound `Cc1cccc2c(=O)n(C3CCN(C(=O)Nc4cccc(C(F)(F)F)c4)CC3)cnc12` showed an RP-LC retention time of 952 s. `CCn1cc(C(=O)Nc2ccc(Br)cc2F)c(=O)c2ccc(C)nc21` gave an RP-LC retention time of 1290 s.

With `O=C(c1cccnc1)C1Cc2ccccc2C1=O` (centres undefined), the RP-LC retention time came out at 884 s.

As to `CC1CCN(S(=O)(=O)c2ccc(C(=O)Nc3nc4c(s3)Cc3ccccc3-4)cc2)CC1`, the RP-LC retention time is 1230 s. In the case of `CC(NC(=O)c1ccccc1)c1nc(-c2ccc3c(c2)nnn3C)no1` (centres undefined) it was 756 s. In the case of `COCC(C)NC(=O)C(=O)c1cn(CC(=O)N2CCOCC2)c2ccccc12` (centres undefined) it was 704 s; in that of `Cc1ccc(NC(=O)Cn2nc(N3CCOCC3)c3ccccc3c2=O)c(Cl)c1`, 871 s; in that of `O=C(Nc1c(F)cc(F)cc1F)c1sc2ccccc2c1Cl`, 1030 s. With `Cn1cc(CN2CCC(C(=O)NC3CCCCCC3)CC2)c2cc(Cl)ccc21`, the RP-LC retention time amounted to 751 s. With `COc1ccc(CC(=O)NC(CC(C)C)C(=O)Nc2nc3ccccc3[nH]2)c(Cl)c1` (centres undefined), the RP-LC retention time turned out to be 784 s. In turn, `Cc1ccc(S(=O)(=O)N2CC(C(=O)NC3CCCC3)Oc3ccc(C)cc32)cc1` (centres undefined) registered an RP-LC retention time of 1140 s. In the case of `Cc1ccccc1-c1ccc(N2CCC(C(=O)Nc3cccnc3)CC2)nn1`, the RP-LC retention time was 546 s. In the case of `COCCCNC(=O)c1cc(-c2ccc(C)cc2)nc2n[nH]c(-c3ccc(C)cc3)c12` it was 881 s; in that of `CN(C)CCNC(=O)Cn1c(=O)n(-c2ccccc2)c2ncccc21`, 579 s; in that of `Cc1ccc(C)c(NS(=O)(=O)c2cc3c(s2)CCN(C(=O)C2CCC2)C3)c1`, 859 s. In the case of `O=C(NC1CCCCC1)c1ccc(-n2cccn2)nc1` it was 815 s.

The compound `CCn1c(=O)oc2cc(-c3noc(-c4cccc5[nH]ccc45)n3)ccc21` showed an RP-LC retention time of 1000 s.

As for `CCn1c(C2CCN(S(=O)(=O)Cc3ccc(F)cc3Cl)C2)nc2ccncc21` (centres undefined), the RP-LC retention time stood at 561 s. For the compound `Cc1noc(C)c1-c1ccc(S(=O)(=O)Nc2ccc(Br)cc2F)cc1`, the RP-LC retention time stood at 1010 s.

In turn, `Cc1ccc(CNC(=O)Cn2nc(N3CCCC3)c3ccccc3c2=O)cc1` had an RP-LC retention time of 908 s. Regarding `O=C1[C@H]2CN(Cc3cccc(F)c3F)C[C@H]2C(=O)N1Cc1ccc2c(c1)OCO2`, the RP-LC retention time was found to be 919 s. Turning to `Cc1ccc(S(=O)(=O)c2cnc(N3CCN(c4ccccn4)CC3)nc2N)cc1C`, the RP-LC retention time turned out to be 677 s. In turn, `Cc1ccccc1NC(=O)Cn1nc(N2CCC(C)CC2)c2ccccc2c1=O` had an RP-LC retention time of 1110 s. In the case of `CS(=O)(=O)N(C1CCOCC1)C1CN(C(=O)Cc2c[nH]c3ccccc23)C1` it was 667 s; in that of `COc1cc(Cl)ccc1-c1nc(-c2ccc3oc(C)nc3c2)no1`, 1140 s. In the case of `Cn1cnc2cc(-c3noc(CNC(=O)c4ccccc4)n3)ccc21` it was 614 s; in that of `CCOC(=O)c1[nH]c(C)c(CN(Cc2ccco2)C(=O)c2ccc3c(c2)OCO3)c1C`, 935 s; in that of `O=C(C1CCCN(Cc2nc(-c3cccnc3)no2)C1)N1CCc2ccccc21` (centres undefined), 595 s.

`CCNC(=O)N1CC=C(C(=O)Nc2ccccc2)CC1`: the RP-LC retention time worked out at 658 s. On to `CCn1c(=O)n(CC)c2cc(N3CCCC3)c(NC(=O)CC(=O)OC)cc21`, for which the RP-LC retention time amounted to 583 s. For `CN1C(=O)c2cc(C(=O)N3CCN(c4ccccc4F)CC3)nn2CC1(C)C(=O)NC1CCCC1` (centres undefined) the value was 801 s; for `O=c1ccc(-c2ccc3c(c2)OCO3)nn1CCc1nc(-c2ccc(Br)cc2)no1`, 1050 s. For `O=C(C1=CN(c2ccc(F)cc2)c2cc(F)ccc2S1(=O)=O)N1CCCCC1`, the RP-LC retention time was determined as 858 s. In the case of `CC(=O)Nc1ccc(S(=O)(=O)N2CCN(S(=O)(=O)N(C)C)CC2)cc1` it was 653 s; in that of `CCc1cccc(NC(=O)Cn2cnc3nc(N4CCCC(C(=O)NC(C)C)C4)sc3c2=O)c1` (centres undefined), 755 s; in that of `COc1ccc(NS(=O)(=O)c2c(C)nn(-c3ccc(-c4ccc(C)c(C)c4)nn3)c2C)cc1OC`, 1050 s. For `CCCOc1cc(S(=O)(=O)NCCCn2ccnc2)ccc1Cl` the value was 596 s; for `CCn1cc(S(=O)(=O)NCc2ccccc2)c2cccnc21`, 804 s. In turn, `Cc1ccccc1OCC(=O)N1CCCC(COCc2ccccc2)C1` (centres undefined) gave an RP-LC retention time of 1030 s. For `COc1ccc(N2C(=O)C3N=NN(Cc4nc(-c5ccc(C)cc5)no4)C3C2=O)cc1OC` (centres undefined) the value was 915 s; for `Cc1cc(Br)ccc1NC(=O)c1cc2n(n1)CCCC2`, 993 s. For `O=C(Nc1cccc(C(F)(F)F)c1)NC1CCN(c2ccc(F)cc2)C1=O` (centres undefined) the value was 923 s; for `CCSc1ccccc1C(=O)NCC1(CO)CC1`, 640 s; for `CN1CCN(C(=O)CSc2nccnc2Sc2ccccc2)CC1`, 637 s.

`Cn1cc(-c2cc3n(n2)CCC(=O)N3CCCC(=O)NC2CCCCC2)c2ccccc21` returned an RP-LC retention time of 847 s. Compound `O=C(Nc1nc(CC(=O)N2CCn3c2nc2ccccc23)cs1)c1ccsc1` had an RP-LC retention time of 657 s. `COc1ccc(N2CC(c3noc(-c4ccc(Cl)cc4)n3)CC2=O)cc1OC` (centres undefined) displayed an RP-LC retention time of 956 s. `O=C1NC2(CCN(C(=O)Nc3ccc(Br)cc3)CC2)N=C1c1cccc(F)c1` came in with an RP-LC retention time of 893 s.

With `CCOC(=O)N1CCN(c2nc(F)c3c(c2F)S(=O)(=O)CCN3Cc2cccnc2)CC1`, the RP-LC retention time was 636 s.

Compound `Cc1ccccc1-c1noc(Cn2c(=O)n(CCc3ccccc3)c(=O)c3sccc32)n1` gave an RP-LC retention time of 1200 s. For `CC(C)C(=O)NCCc1csc(C2CCCN(C(=O)C3CCCO3)C2)n1` (centres undefined) the value was 622 s; for `Cc1c(Cl)cccc1NC(=O)C(=O)NCC(O)c1ccc(C(F)(F)F)cc1` (centres undefined), 936 s. In the case of `Cc1ccn2cc(C(=O)NCc3ccc(N(C)C)cc3)nc2c1` it was 543 s.

For the origin of these results see the METLIN SMRT retention time set (Domingo-Almenara et al. 2019).
